Source: paper PMC6558518 (Angewandte Chemie (International ed. in English), 2018)

What was measured:
HeLa cells [1] = test: MTT assay of cell viability / anti-proliferative activity; assay type: cell-based
HeLa cells [2] = test: Mitochondrial membrane potential with JC-10 dye; conditions: 20 μM

COC1=C2C[C@@H](C)C[C@H](OC)[C@H](O)[C@@H](C)/C=C(\C)[C@H](OC(N)=O)[C@@H](OC)/C=C\C=C(/C)C(=O)NC(=CC1=O)C2=O [GA, Geldanamycin]
inhibitor concentration at which maximum inhibition was reached (HeLa cells [1]; HeLa cells): 0.3 µM
maximum inhibition in HeLa cell viability (HeLa cells [1]; at saturating concentrations): ~ 40%

p-trifluoromethoxy carbonyl cyanide phenyl hydrazone [FCCP]
increase of F520/F590 ratio above the normal value (HeLa cells [2]): up to 7 fold
